The source of these data is patent US20250304582A1, “Bicyclic Ureas As Kinase Inhibitors” (Incyte Corporation, priority 2024, published 2025).

pIC50: −log10 of the molar value. A value given as a limit tells only on which side of the number the result lay.

In test [1] the target is T1, pseudo-kinase domain (JH2, amino-acids 536-812) of human V617F mutant JAK2 (Homo sapiens, UniProt O60674, F794H/V617F/W659A/W777A).
T1 construct: JH2, amino-acids 536-812 with 3 surface mutations W659A, W777A, F794H; His (C); purchased BPS Bioscience 79498; host or cells: baculovirus expression system
Put plainly: JAK2 LanthaScreen JH2-V617F Binding Assay. The following applies: 50 nM Fluorescent JAK2-JH2 Tracer, 1 hour at 25° C.; read-out: JH2 BIND V617F (Ex. C). The procedure:
Example C. JAK2 LanthaScreen JH2-V617F Binding Assay
(§1) JAK2 JH2-V617F binding assay utilizes pseudo-kinase domain (JH2, amino-acids 536-812 with 3 surface mutations W659A, W777A, F794H) of human V617F mutant JAK2 expressed as C-terminal His-Avi-tagged, biotinylated protein in a baculovirus expression system (BPS Bioscience, Catalog #79498). The assay was conducted in black 384-well polystyrene plates in a final reaction volume of 20 μL. JAK2 JH2-V617F (0.26 nM) was incubated with compounds (100 nL serially diluted in DMSO) in the presence of 50 nM Fluorescent JAK2-JH2 Tracer (MedChem Express Catalog #HY-102055) and 0.25 nM Streptavidin-Tb cryptate (Cisbio Part #610SATLB) in assay buffer (50 mM Tris, pH=7.5, 10 mM MgCl2, 0.01% Brij-35, 0.1% BSA, 1 mM EGTA, 5% Glycerol and 5 mM DTT). Non-specific binding was accessed in the presence of 2 mM ATP. After incubation for 1 hour at 25° C., LanthaScreen signals were read on a PHERAstar FS plate reader (BMG LABTECH). Data was analyzed with IDBS Xlfit and GraphPad Prism 5.0 software using a four parameter dose response curve to determine IC50 for each compound.
Background: Time-resolved FRET reads energy transfer from a long-lived donor to a nearby acceptor.

Test [2] addresses T2, catalytic domain (JH1, amino acids 826-1132) of human JAK2 (Homo sapiens, UniProt O60674).
T2 construct: catalytic domain (JH1, amino acids 826-1132) of human JAK2; FLAG (N); purchased Carna Biosciences 08-445-20N; host or cells: baculovirus expression system
In words: JAK2 LanthaScreen JH1 Binding Assay. The following applies: 50 nM fluorescent JAK2-JH1 tracer, 2 hours at 25° C.; read-out: JH1 BIND (EX. A). As for the experimental part: Example A. JAK2 LanthaScreen JH1 Binding Assay
JAK2 JH1 binding assay utilizes catalytic domain (JH1, amino acids 826-1132) of human JAK2 expressed as N-terminal FLAG-tagged, biotinylated protein in a baculovirus expression system (Carna Biosciences, Product #08-445-20N). The assay was conducted in black 384-well polystyrene plates in a final reaction volume of 20 μL. JAK2 JH1 (1.5 nM) was incubated with compounds (100 nL serially diluted in DMSO) in the presence of 50 nM fluorescent JAK2-JH1 tracer and 0.5 nM Streptavidin-Tb cryptate (Cisbio Part #610SATLB) in assay buffer (50 mM Tris, pH=7.5, 10 mM MgCl2, 0.01% Brij-35, 0.1% BSA, 1 mM EGTA, 5% Glycerol and 5 mM DTT). Non-specific binding was accessed in the presence of 2 mM ATP. After incubation for 2 hours at 25° C., LanthaScreen signals were read on a PHERAstar FS plate reader (BMG LABTECH). Data was analyzed with IDBS Xlfit and GraphPad Prism 5.0 software using a four parameter dose response curve to determine IC50 for each compound.

The target in test [3] is T3, catalytic domain (JH1, amino acids 808-1132) of human JAK2 (Homo sapiens, UniProt O60674).
T3 construct: catalytic domain (JH1, amino acids 808-1132) of human JAK2; His (N); purchased BPS Bioscience 40450; host or cells: baculovirus expression system
In words: JAK2 HTRF Enzyme Activity Assay. The class given is biochemical. The following applies: ATP (30 μM or 1 mM; not stated which for the table), 60 minutes at 25° C.; read-out: JAK2 HTRF (Ex. D). As for the experimental part: Example D. JAK2 HTRF Enzyme Activity Assay
JAK2 enzyme activity assays utilize catalytic domain (JH1, amino acids 808-1132) of human JAK2 expressed as N-terminal His-tagged protein in a baculovirus expression system (BPS Bioscience, Catalog #40450). The assays was conducted in black 384-well polystyrene plates in a final reaction volume of 20 μL. JAK2 (0.015 nM) was incubated with compounds (100 nL serially diluted in DMSO) in the presence of ATP (30 μM or 1 mM) and 500 nM Biotin-labeled EQEDEPEGDYFEWLE (SEQ ID NO.: 1) peptide (BioSource International, custom synthesis) in assay buffer (50 mM Tris, pH=7.5, 10 mM MgCl2, 0.01% Brij-35, 0.1% BSA, 1 mM EGTA, 5% Glycerol and 5 mM DTT) for 60 minutes at 25° C. The reactions were stopped by the addition of 10 μL of detection buffer (50 mM Tris, pH 7.8, 0.5 mg/mL BSA, 150 mM NaCl), supplemented with EDTA, LANCE Eu-W1024 anti-phosphotyrosine (PY20), (PerkinElmer, Catalog #AD0067) and Streptavidin SureLight APC (PerkinElmer Catalog #CR130-100), for a final concentration of 15 mM, 1.5 nM and 75 nM, respectively. HTRF signals were read after 30 minutes incubation at room temperature on a PHERAstar FS plate reader (BMG LABTECH). Data was analyzed with TDBS Xlfit and GraphPad Prism 5.0 software using a four parameter dose response curve to determine IC50 for each compound.

Test [4] concerns the target T4, pseudo-kinase domain (JH2, amino-acids 536-812) of human Wild Type JAK2 (Homo sapiens, UniProt O60674, F794H/W659A/W777A).
T4 construct: JH2, amino-acids 536-812 with 3 surface mutations W659A, W777A, F794H; His (C); purchased BPS Bioscience 79463; host or cells: baculovirus expression system
Put plainly: JAK2 LanthaScreen JH2-WT Binding Assay. As to conditions: 50 nM Fluorescent JAK2-JH2 Tracer, 1 hour at 25° C.; read-out: JH2 BIND WT (EX. B). The procedure:
Example B. JAK2 LanthaScreen JH2-WT Binding Assay
as §1, with “JH2-WT” for “JH2-V617F”, “Wild Type” for “V617F mutant”, “#79463).” for “#79498).”, “JH2-WT (0.145” for “JH2-V617F (0.26”

T3 sequence (O60674 808-1132): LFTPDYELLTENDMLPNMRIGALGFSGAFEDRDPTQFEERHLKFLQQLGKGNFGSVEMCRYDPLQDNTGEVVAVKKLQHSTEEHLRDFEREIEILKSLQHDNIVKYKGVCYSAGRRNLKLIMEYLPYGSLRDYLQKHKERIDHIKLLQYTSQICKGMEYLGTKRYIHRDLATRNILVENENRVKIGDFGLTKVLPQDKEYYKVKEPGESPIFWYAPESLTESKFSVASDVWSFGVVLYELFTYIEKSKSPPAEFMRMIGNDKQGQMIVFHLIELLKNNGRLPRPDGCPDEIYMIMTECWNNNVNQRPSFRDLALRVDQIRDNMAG
T1 sequence (O60674 536-812 V617F/W659A/W777A/F794H): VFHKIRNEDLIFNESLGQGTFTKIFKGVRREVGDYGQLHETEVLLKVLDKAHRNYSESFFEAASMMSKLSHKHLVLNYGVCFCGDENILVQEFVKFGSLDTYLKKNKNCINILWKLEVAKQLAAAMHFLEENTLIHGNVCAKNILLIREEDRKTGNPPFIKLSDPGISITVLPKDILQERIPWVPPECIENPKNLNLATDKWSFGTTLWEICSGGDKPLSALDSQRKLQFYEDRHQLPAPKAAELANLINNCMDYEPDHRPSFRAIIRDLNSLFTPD
T4 sequence (O60674 536-812 W659A/W777A/F794H): as the sequence (O60674 536-812 V617F/W659A/W777A/F794H) above, with F82V counted along it
T2 sequence (O60674 826-1132): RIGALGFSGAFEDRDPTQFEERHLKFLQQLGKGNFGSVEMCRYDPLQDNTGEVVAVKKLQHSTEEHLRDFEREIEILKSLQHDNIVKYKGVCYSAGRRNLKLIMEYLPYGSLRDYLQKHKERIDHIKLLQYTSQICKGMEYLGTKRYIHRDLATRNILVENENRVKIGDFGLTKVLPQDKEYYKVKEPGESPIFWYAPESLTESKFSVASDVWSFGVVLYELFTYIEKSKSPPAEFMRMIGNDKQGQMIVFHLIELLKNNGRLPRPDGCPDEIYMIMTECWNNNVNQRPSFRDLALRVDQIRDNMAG

For `[2H]C([2H])([2H])n1c(=O)n([C@@H]2CC[C@@H](NC(=O)OC)C2)c2cc(Nc3cc(CO)c4cccc(C(F)(F)F)c4n3)ncc21` [Example 1, Methyl ((1R,3R)-3-(6-((4-(hydroxymethyl)-8-(trifluoromethyl)quinolin-2-yl)amino)-3-(methyl-d3)-2-oxo-2,3-dihydro-1H-imidazo[4,5-c]pyridin-1-yl)cyclopentyl)carbamate], the pIC50 in test [1] is at least 8.00; in test [2], under 6.00; in test [3], under 6.00; in test [4] it was at least 8.00.

On to `[2H]C([2H])([2H])n1c(=O)n([C@@H]2CC[C@@H](NC(=O)OC)C2)c2cc(Nc3cc(C(C)O)c4cccc(C(F)(F)F)c4n3)ncc21` (stereo partly drawn) [Example 2, Methyl ((1R,3R)-3-(6-((4-(1-hydroxyethyl)-8-(trifluoromethyl)quinolin-2-yl)amino)-3-(methyl-d3)-2-oxo-2,3-dihydro-1H-imidazo[4,5-c]pyridin-1-yl)cyclopentyl)carbamate], for which the pIC50 in test [1] is at least 8.00; in test [2] it was under 6.00; in test [3], under 6.00; in test [4], at least 8.00.

In the case of `[2H]C([2H])([2H])n1c(=O)n([C@@H]2CC[C@]([2H])(NC(=O)OC)C2)c2cc(Nc3cc(C(C)(C)O)c4cccc(C(F)(F)F)c4n3)ncc21` [Example 11, Methyl ((1S,3R)-3-(6-((4-(2-hydroxypropan-2-yl)-8-(trifluoromethyl)quinolin-2-yl)amino)-3-(methyl-d3)-2-oxo-2,3-dihydro-1H-imidazo[4,5-c]pyridin-1-yl)cyclopentyl-1-d)carbamate], the pIC50 in test [1] was at least 8.00; in test [3], under 6.00.

For `[2H]C([2H])([2H])n1c(=O)n([C@@H]2CC[C@@]([2H])(NC(=O)OC)C2)c2cc(Nc3cc(C(C)(C)O)c4cccc(C(F)(F)F)c4n3)ncc21` [Example 12, Methyl ((1R,3R)-3-(6-((4-(2-hydroxypropan-2-yl)-8-(trifluoromethyl)quinolin-2-yl)amino)-3-(methyl-d3)-2-oxo-2,3-dihydro-1H-imidazo[4,5-c]pyridin-1-yl)cyclopentyl-1-d)carbamate], the pIC50 in test [1] was at least 8.00; in test [3], under 6.00.

Turning to `[2H]C([2H])([2H])n1c(=O)n([C@@H]2CC[C@](C)(NC(=O)OC)C2)c2cc(Nc3cc(C(C)(C)O)c4cccc(C(F)(F)F)c4n3)ncc21` [Example 13, Methyl ((1S,3R)-3-(6-((4-(2-hydroxypropan-2-yl)-8-(trifluoromethyl)quinolin-2-yl)amino)-3-(methyl-d3)-2-oxo-2,3-dihydro-1H-imidazo[4,5-c]pyridin-1-yl)-1-methylcyclopentyl)carbamate], the pIC50 in test [1] was at least 8.00; in test [3], under 6.00.

In the case of `[2H]C([2H])([2H])n1c(=O)n([C@@H]2CC[C@](C)(NC(=O)OCCOC)C2)c2cc(Nc3cc(C(C)(C)O)c4cccc(C(F)(F)F)c4n3)ncc21` [Example 14, 2-Methoxyethyl ((1S,3R)-3-(6-((4-(2-hydroxypropan-2-yl)-8-(trifluoromethyl)quinolin-2-yl)amino)-3-(methyl-d3)-2-oxo-2,3-dihydro-1H-imidazo[4,5-c]pyridin-1-yl)-1-methylcyclopentyl)carbamate], the pIC50 in test [1] is at least 8.00; in test [3] it was under 6.00.

With `[2H]C([2H])([2H])n1c(=O)n(C23CCC(NC(=O)OC)(C2)C3)c2cc(Nc3cc(C(C)(C)O)c4cccc(C(F)(F)F)c4n3)ncc21` [Example 32, Methyl (4-(6-((4-(2-hydroxypropan-2-yl)-8-(trifluoromethyl)quinolin-2-yl)amino)-3-(methyl-d3)-2-oxo-2,3-dihydro-1H-imidazo[4,5-c]pyridin-1-yl)bicyclo[2.1.1]hexan-1-yl)carbamate], the pIC50 is at least 8.00 in test [1] and under 6.00 in test [3].

For `[2H]C([2H])([2H])n1c(=O)n(C23CC(NC(=O)OC)(C2)C3)c2cc(Nc3ccc4cccc(C(F)(F)F)c4n3)ncc21` [Example 33, Methyl (3-(3-(methyl-d3)-2-oxo-6-((8-(trifluoromethyl)quinolin-2-yl)amino)-2,3-dihydro-1H-imidazo[4,5-c]pyridin-1-yl)bicyclo[1.1.1]pentan-1-yl)carbamate], the results for the pIC50 in test [1] and in test [3] were 7.00 to 8.00 and under 6.00, respectively.

`[2H]C([2H])([2H])n1c(=O)n([C@@H]2CC[C@@H](NC(=O)OC)C2)c2cc(Nc3cc(C(C)(C)O)c4cccc(C(C)(C)C#N)c4n3)ncc21` [Example 34, Methyl ((1R,3R)-3-(6-((8-(2-cyanopropan-2-yl)-4-(2-hydroxypropan-2-yl)quinolin-2-yl)amino)-3-(methyl-d3)-2-oxo-2,3-dihydro-1H-imidazo[4,5-c]pyridin-1-yl)cyclopentyl)carbamate]: the pIC50 in test [1] is 7.00 to 8.00; in test [3], under 6.00.

As for `[2H]C([2H])([2H])n1c(=O)n([C@@H]2CC[C@@]([2H])(NC(=O)OC)C2)c2cc(Nc3cc(C)c4nc(C)c(I)n4n3)ncc21` [Example 46, Methyl ((1R,3R)-3-(6-((3-iodo-2,8-dimethylimidazo[1,2-b]pyridazin-6-yl)amino)-3-(methyl-d3)-2-oxo-2,3-dihydro-1H-imidazo[4,5-c]pyridin-1-yl)cyclopentyl-1-d)carbamate], the pIC50 in test [1] is at least 8.00; in test [3] it was under 6.00.
